Assay [1] deals with plant, animal and human pathogens. The experiment in a line: Antimicrobial activity in acidic and alkaline pH. The settings on record: in vitro. Format: cell-based. On the procedure:
(§1) Assay plates were incubated at 28° C. for 3 days to observe the zone of growth-inhibition of test microorganisms.
(§2) Test compound was dissolved in chloroform at various concentrations, separately loaded on to sterile filter paper discs (Whatman No.1, 6 mm diameter) and placed on the surface of agar plates pre-inoculated with the test pathogens. Assay plates were incubated at 27° C. for 72 hr for fungi and 27° C. to about 37° C. for 48 hr for bacteria.

The subject of a further assay is cell lines. The experiment in a line: MTT cytotoxicity assay. In kind it is cell-based. As to conditions: average of three replicates. The arrangement: dose or concentration left out as unconfirmed. As to the method:
At the end of incubation, 20 μL MTT (5 mg/mL) was added and cells were incubated at 37° C. After 4 hr, MTT was removed and 100 μL of DMSO was added. Cell viability was determined by measuring the absorbance at a test wavelength of 570 nm.
Cytotoxycity of dimer of phenazine-1-carboxylic acid natural product against cell lines was determined by MTT assay. […] At the end of incubation, 20 μL MTT (5 mg/mL) was added and cells were incubated at 37° C. After 4 hr, MTT was removed and 100 μL of DMSO was added. Cell viability was determined by measuring the absorbance at a test wavelength of 570 nm.

The next assay relates to C. capsici. The experiment in a line: Antimicrobial MIC, agar/disc diffusion. The settings on record: 27° C. for 72 hr. Format: cell-based. On the procedure:
as §1, §2

The subject of the next assay is Escherichia coli. The experiment in a line: Antimicrobial MIC, agar/disc diffusion. Format: cell-based. The settings on record: 27° C. to about 37° C. for 48 hr. As to the method: as §1, §2
Assay [2] deals with Colletotrichum gleosporoides. The experiment in a line: Antimicrobial MIC, agar/disc diffusion. Format: cell-based. The settings on record: 27° C. for 72 hr. On the procedure: as §1, §2
On the technique in general: A growth-free zone around the sample is the usual read-out of agar diffusion tests.

For a further assay, the system named is Botrytis cinera. The experiment in a line: Antimicrobial MIC, agar/disc diffusion. In kind it is cell-based. As to conditions: 27° C. for 72 hr. On the procedure: as §1, §2
In a further assay the test system is Salmonella typhimurium. The experiment in a line: Antimicrobial MIC, agar/disc diffusion. Format: cell-based. As to conditions: 27° C. to about 37° C. for 48 hr. On the procedure:
as §1, §2

A further assay deals with Rhizoctonia solani. The experiment in a line: Antimicrobial MIC, agar/disc diffusion. In kind it is cell-based. As to conditions: 27° C. for 72 hr. As to the method:
as §1, §2

The test system of a further assay is Sarocladium oryzae. In words: Antimicrobial MIC, agar/disc diffusion. In kind it is cell-based. As to conditions: 27° C. for 72 hr. As to the method: as §1, §2
Another assay concerns C. falcatum. In words: Antimicrobial MIC, agar/disc diffusion. Format: cell-based. As to conditions: 27° C. for 72 hr. As to the method: as §1, §2
The test system of a further assay is Macrophomina phaeseolina. The experiment in a line: Antimicrobial MIC, agar/disc diffusion. As to conditions: 27° C. for 72 hr. In kind it is cell-based. As to the method: as §1, §2
The test system of the next assay is Staphylococcus aureus. In words: Antimicrobial MIC, agar/disc diffusion. In kind it is cell-based. As to conditions: 27° C. to about 37° C. for 48 hr. On the procedure: as §1, §2
The subject of another assay is Pseudomonas aeruginosa. The experiment in a line: Antimicrobial MIC, agar/disc diffusion. Format: cell-based. As to conditions: 27° C. to about 37° C. for 48 hr. On the procedure: as §1, §2
Assay [3] deals with Fusarium oxysporum sub sp. cubense. In words: Antimicrobial MIC, agar/disc diffusion. As to conditions: 27° C. for 72 hr. Format: cell-based. As to the method:
as §1, §2

For a further assay, the system named is phytopathogens. The settings on record: in vitro, complete ionization to an inactive carboxylate ion; cited from earlier work.

One may read the MIC as the least concentration at which growth counts as inhibited. Consider dimer of phenazine-1-carboxylic acid, for which the antimicrobial activity entry in assay [1] was “showed antimicrobial activity”. Moreover, the “OD @ 570 nm” value in the assay with cell lines (concentration 1, 24 hr at 37° C.) is 0.531; with cell lines (concentration 10, 24 hr at 37° C.), 0.472; in the assay on cell lines (concentration 25, 24 hr at 37° C.), 0.366; in the assay with cell lines (concentration 50, 24 hr at 37° C.), 0.285. Further, the minimum inhibitory concentration (MIC) in the assay with C. capsici is 7 µg/mL; with Escherichia coli it was >100 µg/mL; in assay [2], 7 µg/mL; in the assay on Botrytis cinera it was 14 µg/mL; in the assay with Salmonella typhimurium it was >120 µg/mL; in the assay with Rhizoctonia solani, 2 µg/mL. Further, the MIC against Sarocladium oryzae was 3 µg/mL; in the assay on C. falcatum, 5 µg/mL; against Macrophomina phaeseolina, 12 µg/mL; against Staphylococcus aureus it was >120 µg/mL; against Pseudomonas aeruginosa, >90 µg/mL; in assay [3], 7 µg/mL.

Consider `O=C(O)c1cccc2nc3ccccc3nc12` [PCA, phenazine 1-carboxylic acid], for which the “effectiveness in alkaline pH” value in the assay on phytopathogens was “ineffective”.

The record behind these values is patent US7365194B2 (Pondicherry University and Department of Biotechnology, priority 2004, dated 2008).
